Laboratory results reported in US8759535B2, “Substituted fused imidazole derivatives, pharmaceutical compositions, and methods of use thereof” (High Point Pharmaceuticals, LLC, priority 2010, dated 2014).
Counter-ions that a name gives are not always drawn.

system: HMOX1; assay: HMOX1 Protein Assay (immunostaining of HO-1 in NHLF cells, GE InCell 1000); assay type: cell-based; conditions: Homo sapiens, fold change above DMSO treated cells, 3 μM compound (asterisk), 16 h
In short: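 NHLF cells seeded overnight in FGM-2, then exposed to compound or DMSO vehicle for 16 h, fixed, and immunostained for HO-1 with Hoechst nuclear counterstain; imaged on InCell 1000. Values are fold change over DMSO-treated cells, generally at 5 μM (0.8% DMSO), with asterisked entries at 3 μM.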

SMILES	fold induction at 3 µM
COCCOCCNC(=O)c1ccc2c(c1)nc(Nc1nc3ccc(C(F)(F)F)cc3s1)n2C [Example 262, 1-Methyl-2-(6-trifluoromethyl-benzothiazol-2-ylamino)-1H-benzoimidazole-5-carboxylic acid [2-(2-methoxy-ethoxy)-ethyl]-amide]	40
COC(C)(C)CNC(=O)c1ccc2c(c1)nc(Nc1nc3ccc(C(F)(F)F)cc3s1)n2C [Example 208, 1-Methyl-2-(6-trifluoromethyl-benzothiazol-2-ylamino)-1H-benzoimidazole-5-carboxylic acid (2-methoxy-2-methyl-propyl)-amide]	26.5

same assay, conditions: Homo sapiens, fold change above DMSO treated cells, 5 μM compound, 16 h

SMILES	fold induction at 5 µM
Cn1c(Nc2nc3ccc(OC(F)(F)F)cc3s2)nc2cc(C(=O)NCCC(=O)OC(C)(C)C)ccc21 [Example 136, 3-{[1-Methyl-2-(6-trifluoromethoxy-benzothiazol-2-ylamino)-1H-benzimidazole-5-carbonyl]-amino}-propionic acid tert-butyl ester]	5.7
C[C@H](O)CNC(=O)c1ccc2c(c1)nc(Nc1nc3ccc(OC(F)(F)F)cc3s1)n2C [Example 50, 1-Methyl-2-(6-trifluoromethoxy-benzothiazol-2-ylamino)-1H-benzoimidazole-5-carboxylic acid ((S)-2-hydroxy-propyl)-amide]	11.1
Cn1c(Nc2nc3ccc(Cl)cc3s2)nc2cc(C(=O)NCCNCCF)ccc21 [Example 279, 2-(6-Chloro-benzothiazol-2-ylamino)-1-methyl-1H-benzoimidazole-5-carboxylic acid [2-(2-fluoro-ethylamino)-ethyl]-amide hydrochloride]	89.2
Cn1c(Nc2nc3ccc(OC(F)(F)F)cc3s2)nc2cc(C(=O)NCCN3CCCC(O)C3)ccc21 (stereo not drawn) [Example 193, 1-Methyl-2-(6-trifluoromethoxy-benzothiazol-2-ylamino)-1H-benzoimidazole-5-carboxylic acid [2-(3-hydroxy-piperidin-1-yl)ethyl]-amide]	11.1
CN(C)C(=O)CNC(=O)c1ccc2c(c1)nc(Nc1nc3ccc(C(F)(F)F)cc3s1)n2C [Example 134, 1-Methyl-2-(6-trifluoromethyl-benzothiazol-2-ylamino)-1H-benzimidazole-5-carboxylic acid dimethylcarbamoylmethyl-amide]	54.5
Cn1c(Nc2nc3ccc(OC(F)(F)F)cc3s2)nc2cc(C(=O)NCCNC(=O)CO)ccc21 [Example 325, 1-Methyl-2-(6-trifluoromethoxy-benzothiazol-2-ylamino)-1H-benzoimidazole-5-carboxylic acid [2-(2-hydroxy-acetylamino)-ethyl]-amide]	32.4
COC(C)(C)CNC(=O)c1ccc2c(c1)nc(Nc1nc3ccc(OC(F)(F)F)cc3s1)n2C [Example 22, 1-Methyl-2-(6-trifluoromethoxy-benzothiazol-2-ylamino)-1H-benzoimidazole-5-carboxylic acid (2-methoxy-2-methyl-propyl)-amide]	18.7
CN(C)C(=O)CCCNC(=O)c1ccc2c(c1)nc(Nc1nc3ccc(Cl)cc3s1)n2C [Example 376, 2-(6-Chloro-benzothiazol-2-ylamino)-1-methyl-1H-benzoimidazole-5-carboxylic acid (3-dimethylcarbamoyl-propyl)-amide]	19.1
Cn1c(Nc2nc3ccc(S(C)(=O)=O)cc3s2)nc2cc(C(=O)NCCS(C)(=O)=O)ccc21 [Example 131, 2-(6-Methanesulfonyl-benzothiazol-2-ylamino)-1-methyl-1H-benzimidazole-5-carboxylic acid (2-methylsulfonyl-ethyl)-amide]	6.8
CNCCOCCNC(=O)c1ccc2c(c1)nc(Nc1nc3ccc(Cl)cc3s1)n2C [Example 272, 2-(6-Chloro-benzothiazol-2-ylamino)-1-methyl-1H-benzoimidazole-5-carboxylic acid [2-(2-methylamino-ethoxy)-ethyl]-amide hydrochloride]	86.5
